According to ChEMBL document CHEMBL1141249, “Lucentamycins A-D, cytotoxic peptides from the marine-derived actinomycete Nocardiopsis lucentensis” (J Nat Prod, 2007):
Calls of active or inactive are those of the source. No cut-off for these calls is given here.

What was measured:
HCT-116 [1] = experiment: Cytotoxicity against human HCT116 cells by MTS assay; format: functional, cell-based
HCT-116 [2] = experiment: Cytotoxicity against human HCT116 cells upto 150 uM by MTS assay; format: functional, cell-based

| SMILES | IC50 (HCT-116 [1]) | Activity (HCT-116 [2]) |
| --- | --- | --- |
| C/C=C1\CN(C(=O)[C@H](CCCCNC(=N)N)NC(=O)c2ccccc2)[C@H](C(=O)N[C@@H](CC(C)C)C(=O)O)[C@@H]1C [LUCENTAMYCIN A] | 0.2 µM | – |
| C/C=C1/CN(C(=O)[C@H](CCCCNC(=N)N)NC(=O)CC(C)C)[C@H](C(=O)N[C@@H](Cc2c[nH]c3ccccc23)C(=O)O)[C@@H]1C [LUCENTAMYCIN B] | 11 µM | – |
| C/C=C1\CN(C(=O)[C@H](CCCCNC(=N)N)NC(=O)CC(C)C)[C@H](C(=O)N[C@@H](CC(C)C)C(=O)O)[C@@H]1C | – | inactive |
| C/C=C1\CN(C(=O)[C@H](CCCCNC(=N)N)NC(=O)C=C(C)C)[C@H](C(=O)N[C@@H](CC(C)C)C(=O)O)[C@@H]1C | – | inactive |
